Assay [1] has as its system thrombus formation in arteriovenous shunt. The assay is described as follows: Arteriovenous shunt model (rat), antithrombotic activity. As to conditions: po, read-out: ED50 [mg/kg] p.o. Type of assay: in vivo. As to the method:
b) Determination of the Antithrombotic Activity (In Vivo) b.1) Arteriovenous Shunt Model (Rat) Fasting male rats (strain: HSD CPB:WU) having a weight of 200-250 g were anaesthetized using a Rompun/Ketavet solution (12 mg/kg/50 mg/kg). Thrombus formation was initiated in an arteriovenous shunt in accordance with the method described by Christopher N. Berry et al., Br. J. Pharmacol. (1994), 113, 1209-1214. To this end, the left jugular vein and the right carotid artery were exposed. The two vessels were connected by an extracorporeal shunt using a polyethylene tube (PE 60) of a length of 10 cm. […] The extracorporeal circulation was maintained for 15 minutes. The shunt was then removed and the nylon thread with the thrombus was weighed immediately. The weight of the nylon thread on its own had been determined before the experiment was started. Before the extracorporeal circulation was set up, the test substances were administered to the animals while awake either intravenously via the tail vein or orally using a pharyngeal tube.

In a further assay the target is human factor Xa (FXa) (Homo sapiens (Human), UniProt P00742). Briefly: Determination of the factor Xa inhibition (chromogenic substrate). The assay is classed as biochemical. As to the method: Factor Xa cleaves p-nitroaniline from the chromogenic substrate. The determinations were carried out in microtitre plates as follows.
human factor Xa (FXa), sequence (P00742 235-488): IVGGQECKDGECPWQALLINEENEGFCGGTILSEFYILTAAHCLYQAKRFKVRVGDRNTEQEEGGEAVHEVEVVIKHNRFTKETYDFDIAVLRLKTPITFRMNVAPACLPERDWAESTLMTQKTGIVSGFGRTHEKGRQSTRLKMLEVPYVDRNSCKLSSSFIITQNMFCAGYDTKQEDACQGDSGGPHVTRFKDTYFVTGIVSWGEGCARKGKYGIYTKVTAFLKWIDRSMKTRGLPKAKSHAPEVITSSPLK
human factor Xa (FXa), sequence (P00742 41-179 partner): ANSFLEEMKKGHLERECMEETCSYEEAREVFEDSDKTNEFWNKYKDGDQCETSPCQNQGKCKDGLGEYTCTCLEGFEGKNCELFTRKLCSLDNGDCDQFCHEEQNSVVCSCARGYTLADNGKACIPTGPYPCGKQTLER
The test substances, in various concentrations, were dissolved in DMSO and incubated at 25° C. with human FXa (0.5 nmol/l dissolved in 50 mmol/l of tris buffer [C,C,C-tris(hydroxymethyl)-aminomethane], 150 mmol/l of NaCl, 0.1% BSA (bovine serum albumin), pH=8.3) for 10 minutes. Pure DMSO was used as control. The chromogenic substrate (150 μmol 11 of Pefachrome® FXa from Pentapharm) was then added.

For the compound `O=C(NC[C@H]1CN(c2ccc(N3CCOCC3=O)cc2)C(=O)O1)c1ccc(Cl)s1` [Example 44, 5-Chloro-N-({(5S)-2-oxo-3-[4-(3-oxo-4-morpholinyl)phenyl]-1,3-oxazolidin-5-yl}methyl)-2-thiophenecarboxamide], in assay [1], the ED50 came out at 3 mg/kg.

As for `O=C(NC[C@H]1CN(c2ccc(N3CCN(C(=O)CO)CC3)c(F)c2)C(=O)O1)c1ccc(Cl)s1` [Example 48], at human factor Xa (FXa) (human FXa, table of Examples 48-57), 120 nM corresponded to half-maximal inhibition (IC50).

Take `O=C(NC[C@H]1CN(c2ccc(S(=O)(=O)N3CCC3)cc2)C(=O)O1)c1ccc(Cl)s1` [Example 39, 5-Chloro-N-({(5S)-3-[4-(1-azetidinylsulphonyl)phenyl]-2-oxo-1,3-oxazolidin-5-yl}methyl)-2-thiophenecarboxannide]: on human factor Xa (FXa) (human FXa 0.5 nmol/l, Pefachrome FXa substrate, 25° C., value printed in example text), 840 nM corresponded to half-maximal inhibition (IC50).

The values are drawn from patent US8822458B2, “Substituted oxazolidinones and their use in the field of blood coagulation” (Bayer Intellectual Property GmbH, priority 1999, dated 2014).
